For one assay, the system named is Candida albicans. The experiment in a line: Anti-biofilm activity, crystal violet spectrophotometric assay (Example 1). Type of assay: cell-based. The settings on record: C. albicans. How it is done: (§1) The bacterial biofilm was formed in a sterile 96-well polystyrene plate. In short, a microbial suspension was prepared at an optical density of 0.5 McFarland for each strain. 20 μl of microbial suspension were added to each well containing 180 μl of VitE at various concentrations. Positive controls were performed by inoculating the bacteria in BHI+HA. Following incubation for 24 h at 37° C., the broth was removed, together with non-adherent microorganisms, and 200 μl of broth were added once again. The plates were incubated at 37° C. for another 48 h, until a mature biofilm was obtained.
(§2) The amount of biofilm was determined by means of a spectrophotometric assay, adopting the method developed by Christensen et al. (1985). At the end of the incubation period, the culture medium was removed and the wells covered by the biofilm were washed twice with a sterile saline solution and then dried. The biofilm was stained with 200 μl of a 5% crystal violet solution for 10 minutes. After staining, the wells were washed with a sterile saline solution to remove excess stain and left to dry completely. Lastly, 200 μl of 96% ethanol were added to each well to re-solubilize the stain included in the biofilm. Absorbance of the crystal violet was measured at 595 nm using a microplate reader. The assay was conducted in triplicate for each bacterial strain and repeated twice.

The subject of a further assay is Escherichia coli. The description is as above. The settings on record: E. coli. Type of assay: cell-based. How it is done:
as §1, §2

Another assay has as its system Pseudomonas aeruginosa. The assay is described as above. The note with it: P. aeruginosa. The assay is classed as cell-based. How it is done: as §1, §2
The subject of a further assay is Staphylococcus aureus. The assay is described as above. Type of assay: cell-based. The settings on record: S. aureus. The method, then:
as §1, §2

Assay [1] concerns Staphylococcus epidermidis. Described as above. Type of assay: cell-based. The settings on record: S. epidermidis. How it is done: as §1, §2
The next assay concerns S. aureus. Put plainly: MIC and MBC, broth microdilution (Example 3). The assay is classed as cell-based, Staphylococcus aureus. The settings on record: S. aureus strains. An excerpt:
(§3) This study used clinically relevant strains isolated from patients with prosthetic joint infections at the Microbiology Laboratory of the IRCCS Galeazzi Orthopaedic institute (Italy). In particular, the following were selected: strains of methicillin-resistant Staphylococcus epidermidis, of methicillin-resistant Staphylococcus aureus and of Pseudomonas aeruginosa. These strains were identified beforehand by means of biochemical assays (VITEK® 2 Compact, bioMérieux, Marcy l'Etoile, France) and stored at −80° C. prior to the analysis. Before beginning the study, all strains were screened to assess their ability to produce biofilms, according to the spectrophotometric assay described by Christensen et al. (J Clin Microbiol 1985; 22: 996-1006).
(§4) The bacteriostatic and bactericidal activity of vitamin E acetate and vitamin E phosphate against the above-mentioned bacterial strains was assessed by measuring the minimum inhibitory concentration (MIC) and the minimum bactericidal concentration (MBC). MIC, defined as the lowest concentration capable of inhibiting bacterial growth, was determined using the broth microdilution method according to EUCAST guidelines (http://www.eucast.org/clinical_breakpoints/).
(§5) In short, a suspension in Brain Heart Infusion Broth (BHI; Biomérieux, Marci l'Etoile, France) was prepared for each bacterial strain, with an optical density of 0.5 McFarland (1.5×10^8 CFU/ml). The P. acnes broth was supplemented with 5% defibrinated sheep blood (Liofilchem, Roseto degli Abruzzi, Italy). After a concentration of 10^5 UFC/ml was obtained using appropriate dilutions, each suspension was inoculated in a 96-well microtitre plate containing a two-fold serial dilution of vitamin E acetate (VitE-Ac) and vitamin E phosphate. The controls were performed by inoculating bacterial suspensions in BHI alone. […] After incubation at adequate conditions, MBC was read as the lowest concentration capable of killing 99.9% of the initial inoculum.
For orientation: In broth dilution the organism is exposed to a series of concentrations in liquid medium.

The test system of the next assay is P. aeruginosa. Put plainly: MIC and MBC, broth microdilution (Example 3). The assay is classed as cell-based, Pseudomonas aeruginosa. The note with it: P. aeruginosa strains.
From the text: as §3, §4, §5

The mark [2] stands for this setting: kills 99.9% of the initial inoculum.

Consider `CC(=O)Oc1c(C)c(C)c2c(c1C)CCC(C)(CCC[C@H](C)CCC[C@H](C)CCCC(C)C)O2` (stereo partly drawn) [Vitamin E acetate, α-tocopherol acetate], for which the “reduction of microbial biofilm with respect to the control” value in the assay with Candida albicans (2.5% VitE in HA carrier) is listed as 24%; in the assay on Candida albicans (5% VitE in HA carrier), 37%; with Escherichia coli (2.5% VitE in HA carrier), 18%; with Escherichia coli (5% VitE in HA carrier) it was 38%; in the assay on Pseudomonas aeruginosa (2.5% VitE in HA carrier) it was 24%; in the assay with Pseudomonas aeruginosa (5% VitE in HA carrier), 39%. Further, the “reduction of microbial biofilm with respect to the control” value is 63% with Staphylococcus aureus (2.5% VitE in HA carrier), 79% in the assay with Staphylococcus aureus (5% VitE in HA carrier), 30% in assay [1] (2.5% VitE in HA carrier) and 46% in assay [1] (5% VitE in HA carrier). The MIC range in the assay with S. aureus (24 hours) and in the assay on P. aeruginosa (24 hours) was >200 mg/mL each time. Besides, the MBC range with S. aureus (setting [2]) and in the assay with P. aeruginosa (setting [2]) was >200 mg/mL each time.

Values taken from patent US20190015385A1, “VITAMIN E PHOSPHATE OR ACETATE FOR USE IN THE TREATMENT AND PREVENTION OF BIOFILM INFECTIONS” (priority 2016, published 2019).
